Test [1] deals with Erythrocyte. In words: Induction of eryptosis in human erythrocytes assessed as hemolysis-mediated hemoglobin release at 1 uM after 48 hrs by photometric analysis. It counts as functional, cell-based.
For test [2], the system named is Erythrocyte. Kind of test: Induction of eryptosis in human erythrocytes assessed as phospholipid scrambling of the cell membrane at >= 5 uM after 48 hrs using Annexin V-FITC staining by confocal laser scanning microscopy. It counts as functional, cell-based.
In test [3] the test system is Erythrocyte. In words: Induction of eryptosis in human erythrocytes assessed as increase in cytosolic Ca2+ concentration at >= 5 uM after 48 hrs by fluo-3/AM-fluorescence-based FACS analysis. It counts as functional, cell-based. Background: Flow cytometry measures light scatter and fluorescence of single cells or particles in a stream.
The test system of test [4] is Erythrocyte. Kind of test: Induction of eryptosis in human erythrocytes assessed as phospholipid scrambling of the cell membrane at 10 uM after 48 hrs using Annexin V-FITC staining by confocal laser scanning microscopy in absence of Ca2+. It counts as functional, cell-based.
The test system of test [5] is Erythrocyte. Kind of test: Induction of apoptosis in human erythrocytes assessed as scrambling of the cell membrane at 0.5 to 10 uM after 48 hrs using Annexin V-FITC staining by confocal laser scanning microscopy in presence of Ca2+. The test is classed as functional, cell-based.
Test [6] has as its system Erythrocyte. Kind of test: Induction of eryptosis in human erythrocytes assessed as cell shrinkage measuring decrease in forward scatter of the cells at 5 uM after 48 hrs by […] FACS analysis. The test is classed as functional.
Test [7] concerns Erythrocyte. Kind of test: Induction of eryptosis in human erythrocytes assessed as stimulation of ceramide formation at 10 uM after 48 hrs by FITC-based flow cytometry. It counts as functional, cell-based.
In test [8] the test system is Erythrocyte. Kind of test: Induction of eryptosis in human erythrocytes assessed as decrease in intracellular ATP concentration at 10 uM after 48 hrs by luciferase-based luminometry. The test is classed as functional, cell-based.

Each structure is given as a SMILES string. Active and inactive are the calls of the source. The calls are words filed in the database; no cut-off is given here.

Take `C[C@H]1[C@H](C)CC[C@]2(C(=O)O)CC[C@]3(C)C(=CC[C@@H]4[C@@]5(C)CC[C@H](O)C(C)(C)[C@@H]5CC[C@]43C)[C@H]12`: the result in the test on Erythrocyte [1], in the test on Erythrocyte [2], in the test with Erythrocyte [3], in the test with Erythrocyte [5] and with Erythrocyte [6] was Active. Moreover, the result in the test with Erythrocyte [4], in the test with Erythrocyte [7] and with Erythrocyte [8] was inactive.

The values above are taken from ChEMBL document CHEMBL1921741, “Triggering of erythrocyte cell membrane scrambling by ursolic acid” (J Nat Prod, 2011).
